This note sets out measurements from paper PMC10281360 (Microbial Biotechnology, 2023).

The test system of this experiment is rAbf43A. Nature of the experiment: HPLC of released arabinose, Michaelis-Menten non-linear regression. The class given is biochemical, metagenome: lignocellulolytic bacterial consortium EMSD5. Conditions: 0.05 M citric-Na2HPO4 pH 5.0, 40 °C, 10 min; AXHd3 activity; 0-40.0 mM substrate.

SMILES strings stand for the structures.

With `OC[C@@H]1O[C@@H](O[C@@H]2[C@@H](O[C@@H]3O[C@@H](CO)[C@H](O)[C@H]3O)[C@H](O[C@@H]3CO[C@@H](O[C@@H]4COC(O)[C@H](O)[C@H]4O)[C@H](O)[C@H]3O)OC[C@H]2O)[C@H](O)[C@H]1O` (stereo partly drawn) [A2,3XX, 2^3,3^3‐di‐α‐L‐arabinofuranosyl‐xylotriose], the Michaelis-Menten constant (Km) worked out at 8.03 mM.
